Source: ChEMBL document CHEMBL4184320, “Optimization of Selective Mitogen-Activated Protein Kinase Interacting Kinases 1 and 2 Inhibitors for the Treatment of Blast Crisis Leukemia” (J Med Chem, 2018)
Values after ≈ are worked out from the molar mass of the structure shown. Active and inactive are the calls of the source. No cut-off for these calls is given here.

Assays:
[1] = system: K562; assay: Antitumor activity against human K562 cells overexpressing GFP-fussed full length mouse eIF4E xenografted in SCID mouse assessed as tumor growth inhibition at 2.5 mg/kg, po qd administered via gavage for 5 days on 2 days off per cycle for 2 cycles relative to control; type: functional; details: read-out: TGI
[2] = Permeability of the compound by PAMPA; type: ADME; details: read-out: permeability
[3] = in vitro; details: human, liver microsomes
Description: Half life in human liver microsomes at 1 uM in presence of NADPH by LC-MS/MS analysis

[4] = Apparent permeability of the compound across apical side to basolateral side in human Caco2 cells by LC-MS/MS analysis; type: ADME, cell-based; details: Caco-2
[5] = Octanol-phosphate buffer partition coefficient, logD of compound at pH 7.4 by HPLC-UV analysis; type: physicochemical
[6] = Oral bioavailability in mouse at 50 mg/kg; type: ADME, organism-based; details: in vivo
[7] = Protein binding in human plasma at […] after 5 hrs by LC-MS/MS analysis; type: ADME, cell-free; details: read-out: PPB (converted)
[8] = Protein binding in mouse plasma at […] after 5 hrs by LC-MS/MS analysis; type: ADME, cell-free; details: read-out: PPB (converted)
[9] = biological target: Cytochrome P450 2D6 (Homo sapiens, UniProt P10635); assay: Inhibition of CYP2D6 in human liver microsomes using dextromethorphan as substrate preincubated for 5 mins followed by NADPH addition by LC-MS/MS analysis; type: ADME
Chain of Cytochrome P450 2D6 (P10635 whole entry): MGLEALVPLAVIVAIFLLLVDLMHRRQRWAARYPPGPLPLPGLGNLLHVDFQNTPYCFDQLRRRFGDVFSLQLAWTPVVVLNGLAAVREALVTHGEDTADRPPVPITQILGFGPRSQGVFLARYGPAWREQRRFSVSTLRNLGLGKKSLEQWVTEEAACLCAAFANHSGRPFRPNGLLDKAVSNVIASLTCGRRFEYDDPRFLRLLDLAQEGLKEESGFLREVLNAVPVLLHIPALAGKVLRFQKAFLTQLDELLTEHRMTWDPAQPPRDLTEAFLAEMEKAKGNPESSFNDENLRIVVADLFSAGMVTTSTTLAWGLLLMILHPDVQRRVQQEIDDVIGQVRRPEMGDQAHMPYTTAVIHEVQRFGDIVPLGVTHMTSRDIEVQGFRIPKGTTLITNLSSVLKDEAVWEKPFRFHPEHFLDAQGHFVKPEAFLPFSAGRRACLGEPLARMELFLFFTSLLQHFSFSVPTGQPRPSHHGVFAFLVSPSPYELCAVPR

[10] = Thermodynamic solubility of the compound at pH 4 to 7.4 pION buffer after 18 hrs by UV spectrophotometric analysis; type: physicochemical; details: read-out: Therm_solubility
[11] = in vitro; details: mouse, liver microsomes
Description: Half life in mouse liver microsomes at 1 uM in presence of NADPH by LC-MS/MS analysis

[12] = biological target: Cytochrome P450 3A4 (Homo sapiens, UniProt P08684)
Chain of Cytochrome P450 3A4 (P08684 whole entry, the tested form may be a part): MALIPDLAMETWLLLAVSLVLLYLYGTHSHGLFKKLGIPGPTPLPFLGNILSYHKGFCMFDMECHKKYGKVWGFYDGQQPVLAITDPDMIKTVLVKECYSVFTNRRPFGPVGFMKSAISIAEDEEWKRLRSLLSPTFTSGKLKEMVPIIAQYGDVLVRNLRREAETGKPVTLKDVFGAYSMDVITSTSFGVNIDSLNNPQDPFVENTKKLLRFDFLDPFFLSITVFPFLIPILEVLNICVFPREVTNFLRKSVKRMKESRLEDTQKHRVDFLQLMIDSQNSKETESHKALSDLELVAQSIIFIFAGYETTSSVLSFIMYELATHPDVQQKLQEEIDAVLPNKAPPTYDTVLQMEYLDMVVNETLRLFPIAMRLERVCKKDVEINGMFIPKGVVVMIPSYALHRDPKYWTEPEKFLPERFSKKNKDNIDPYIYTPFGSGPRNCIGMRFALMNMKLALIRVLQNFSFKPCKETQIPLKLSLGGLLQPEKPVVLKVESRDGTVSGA
Description: Inhibition of CYP3A4 in human liver microsomes using midazolam as substrate preincubated for 5 mins followed by NADPH addition measured after 5 mins by LC-MS/MS analysis

[13] = biological target: Mast/stem cell growth factor receptor Kit (Homo sapiens) (UniProt P10721); assay: Inhibition of wild-type human partial length KIT (I571 to D952 residues) expressed in bacterial expression system at 1 uM by Kinomescan method relative to control
[14] = biological target: Receptor-type tyrosine-protein kinase FLT3 (Homo sapiens) (UniProt P36888); assay: Inhibition of wild-type human partial length FLT3 (V592 to Y969 residues) expressed in bacterial expression system at 1 uM by Kinomescan method relative to control
Chain of Receptor-type tyrosine-protein kinase FLT3 (Homo sapiens) (P36888 whole entry, the tested form may be a part): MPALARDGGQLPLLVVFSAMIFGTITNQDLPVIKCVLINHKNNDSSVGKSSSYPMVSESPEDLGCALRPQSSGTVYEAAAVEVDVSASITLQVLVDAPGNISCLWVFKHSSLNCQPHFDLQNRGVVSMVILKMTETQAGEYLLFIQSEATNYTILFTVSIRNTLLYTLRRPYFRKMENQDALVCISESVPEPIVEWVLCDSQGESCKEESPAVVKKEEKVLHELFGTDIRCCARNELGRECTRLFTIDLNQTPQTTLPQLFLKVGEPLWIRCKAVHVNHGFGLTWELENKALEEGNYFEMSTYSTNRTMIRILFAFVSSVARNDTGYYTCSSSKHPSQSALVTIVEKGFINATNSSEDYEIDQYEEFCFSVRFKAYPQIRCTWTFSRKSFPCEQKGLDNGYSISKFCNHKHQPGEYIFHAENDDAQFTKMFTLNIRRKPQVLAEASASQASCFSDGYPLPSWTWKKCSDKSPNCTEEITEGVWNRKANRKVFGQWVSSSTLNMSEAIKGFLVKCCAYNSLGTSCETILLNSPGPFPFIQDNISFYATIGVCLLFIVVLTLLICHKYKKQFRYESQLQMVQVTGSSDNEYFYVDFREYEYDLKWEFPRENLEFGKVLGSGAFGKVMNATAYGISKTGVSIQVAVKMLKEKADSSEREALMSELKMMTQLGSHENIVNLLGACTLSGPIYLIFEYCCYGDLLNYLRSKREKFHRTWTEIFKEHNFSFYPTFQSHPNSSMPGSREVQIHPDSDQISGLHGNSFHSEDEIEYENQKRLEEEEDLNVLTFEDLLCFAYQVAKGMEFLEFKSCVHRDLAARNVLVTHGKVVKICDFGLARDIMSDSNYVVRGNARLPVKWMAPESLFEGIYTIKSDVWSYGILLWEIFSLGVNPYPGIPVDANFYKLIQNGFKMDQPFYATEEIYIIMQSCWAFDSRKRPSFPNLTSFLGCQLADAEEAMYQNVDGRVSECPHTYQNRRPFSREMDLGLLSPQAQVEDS

[15] = biological target: MAP kinase-interacting serine/threonine-protein kinase 2 (Homo sapiens, UniProt Q9HBH9)
Chain of MAP kinase-interacting serine/threonine-protein kinase 2 (Q9HBH9 whole entry): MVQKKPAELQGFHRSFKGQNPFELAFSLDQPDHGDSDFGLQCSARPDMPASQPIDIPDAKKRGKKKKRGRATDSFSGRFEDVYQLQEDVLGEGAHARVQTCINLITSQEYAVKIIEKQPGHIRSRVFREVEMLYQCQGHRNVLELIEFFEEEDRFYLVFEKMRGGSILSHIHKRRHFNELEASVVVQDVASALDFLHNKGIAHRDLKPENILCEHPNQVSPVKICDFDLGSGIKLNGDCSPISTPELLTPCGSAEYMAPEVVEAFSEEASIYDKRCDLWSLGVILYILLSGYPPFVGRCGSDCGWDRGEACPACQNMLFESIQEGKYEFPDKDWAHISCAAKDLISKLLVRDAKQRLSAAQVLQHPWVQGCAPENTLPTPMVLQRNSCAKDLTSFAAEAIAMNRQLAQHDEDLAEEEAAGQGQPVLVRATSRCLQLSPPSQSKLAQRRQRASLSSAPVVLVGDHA
Description: Inhibition of GST-tagged MNK2 (72 to 385 residues) (unknown origin) expressed in Escherichia coli BL21(DE3) using JH3 peptide as substrate preincubated for 10 mins followed by substrate and ATP addition measured after 60 mins

[16] = Half life in dog liver microsomes at 1 uM in presence of NADPH by LC-MS/MS analysis; type: ADME, Canis lupus familiaris, microsome
[17] = Half life in CD-1 mouse at 1 mg/kg, iv administered as single dose by LC-MS/MS analysis; type: ADME, organism-based; details: in vivo
[18] = Half life in CD-1 mouse at 5 mg/kg, po administered via gavage as single dose by LC-MS/MS analysis; type: ADME, organism-based; details: in vivo
[19] = biological target: Platelet-derived growth factor receptor alpha (Homo sapiens) (UniProt P16234); assay: Inhibition of wild-type human partial length PDGFRA (V575 to D1002 residues) expressed in mammalian expression system at 1 uM by Kinomescan method relative to control
Chain of Platelet-derived growth factor receptor alpha (Homo sapiens) (P16234 whole entry, the tested form may be a part): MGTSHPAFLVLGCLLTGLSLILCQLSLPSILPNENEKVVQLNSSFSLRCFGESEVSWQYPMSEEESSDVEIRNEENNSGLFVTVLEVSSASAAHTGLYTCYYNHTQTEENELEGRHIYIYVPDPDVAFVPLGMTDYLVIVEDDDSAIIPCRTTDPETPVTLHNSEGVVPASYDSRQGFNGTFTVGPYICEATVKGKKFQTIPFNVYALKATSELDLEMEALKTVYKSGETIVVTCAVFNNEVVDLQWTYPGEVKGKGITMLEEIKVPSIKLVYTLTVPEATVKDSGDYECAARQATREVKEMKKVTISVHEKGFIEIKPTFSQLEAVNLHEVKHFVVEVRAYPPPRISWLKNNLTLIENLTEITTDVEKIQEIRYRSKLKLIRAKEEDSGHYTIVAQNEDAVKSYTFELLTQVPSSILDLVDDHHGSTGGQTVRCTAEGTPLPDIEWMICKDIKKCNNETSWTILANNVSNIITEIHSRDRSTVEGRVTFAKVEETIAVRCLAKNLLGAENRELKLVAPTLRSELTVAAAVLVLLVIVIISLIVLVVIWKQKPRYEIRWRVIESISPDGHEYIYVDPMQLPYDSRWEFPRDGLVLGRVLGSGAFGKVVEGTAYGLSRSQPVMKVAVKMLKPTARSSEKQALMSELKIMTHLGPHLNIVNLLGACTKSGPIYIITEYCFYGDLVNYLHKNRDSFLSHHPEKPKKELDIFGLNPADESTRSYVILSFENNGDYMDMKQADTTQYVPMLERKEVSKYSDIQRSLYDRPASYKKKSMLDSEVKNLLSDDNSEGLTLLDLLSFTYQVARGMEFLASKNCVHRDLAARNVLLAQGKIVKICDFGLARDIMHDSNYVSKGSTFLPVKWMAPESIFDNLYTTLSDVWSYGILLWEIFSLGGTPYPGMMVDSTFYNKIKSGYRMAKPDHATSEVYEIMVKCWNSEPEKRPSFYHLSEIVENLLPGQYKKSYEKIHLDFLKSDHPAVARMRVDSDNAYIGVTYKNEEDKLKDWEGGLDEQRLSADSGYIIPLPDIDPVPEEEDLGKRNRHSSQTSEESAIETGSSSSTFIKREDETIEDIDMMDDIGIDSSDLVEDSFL

[20] = AUClast in CD-1 mouse at 5 mg/kg, po administered via gavage as single dose by LC-MS/MS analysis; type: ADME, organism-based; set-up: dose 5 mg/kg, time 0 - last, route oral; details: in vivo
[21] = biological target: SRSF protein kinase 3 (Homo sapiens) (UniProt Q9UPE1); assay: Inhibition of human SRPK3 (P41 to P567 residues) expressed in bacterial expression system at 1 uM by KINOMEscan assay relative to control
[22] = AUClast in CD-1 mouse at 1 mg/kg, iv administered as single dose by LC-MS/MS analysis; type: ADME, organism-based; set-up: dose 1 mg/kg, time 0 - last, route intravenous; details: in vivo
[23] = Oral bioavailability in CD-1 mouse at 5 mg/kg administered via gavage as single dose by LC-MS/MS analysis; type: ADME, organism-based; details: in vivo
[24] = Initial concentration in CD-1 mouse at 1 mg/kg, iv administered as single dose by LC-MS/MS analysis; type: ADME, organism-based; details: in vivo
[25] = Cmax in CD-1 mouse at 5 mg/kg, po administered via gavage as single dose by LC-MS/MS analysis; type: ADME, organism-based; set-up: dose 5 mg/kg, route oral; details: in vivo
[26] = system: DOHH-2; assay: Antiproliferative activity against human DOHH2 cells after 48 hrs by CellTiter-Glo luminescence assay; type: functional, cell-based
[27] = biological target: Phosphorylase b kinase gamma catalytic chain, liver/testis isoform (Homo sapiens) (UniProt P15735); assay: Inhibition of wild-type human partial length PHKG2 (M1 to W300 residues) expressed in bacterial expression system at 1 uM by Kinomescan method relative to control
[28] = species: Homo sapiens; assay: Antiproliferative activity against human GK5 cells after 48 hrs by CellTiter-Glo luminescence assay; type: functional, cell-based
[29] = in vitro; details: rat, liver microsomes
Description: Half life in rat liver microsomes at 1 uM in presence of NADPH by LC-MS/MS analysis

[30] = biological target: Platelet-derived growth factor receptor alpha (Homo sapiens) (UniProt P16234); assay: Inhibition of wild-type human partial length PDGFRA (V575 to D1002 residues) expressed in mammalian expression system by Kinomescan method
[31] = biological target: Serine/threonine-protein kinase 17A (Homo sapiens) (UniProt Q9UEE5); assay: Inhibition of wild-type human partial length DRAK1 (R32 to E363 residues) expressed in bacterial expression system at 1 uM by Kinomescan method relative to control
Chain of Serine/threonine-protein kinase 17A (Homo sapiens) (Q9UEE5 whole entry, the tested form may be a part): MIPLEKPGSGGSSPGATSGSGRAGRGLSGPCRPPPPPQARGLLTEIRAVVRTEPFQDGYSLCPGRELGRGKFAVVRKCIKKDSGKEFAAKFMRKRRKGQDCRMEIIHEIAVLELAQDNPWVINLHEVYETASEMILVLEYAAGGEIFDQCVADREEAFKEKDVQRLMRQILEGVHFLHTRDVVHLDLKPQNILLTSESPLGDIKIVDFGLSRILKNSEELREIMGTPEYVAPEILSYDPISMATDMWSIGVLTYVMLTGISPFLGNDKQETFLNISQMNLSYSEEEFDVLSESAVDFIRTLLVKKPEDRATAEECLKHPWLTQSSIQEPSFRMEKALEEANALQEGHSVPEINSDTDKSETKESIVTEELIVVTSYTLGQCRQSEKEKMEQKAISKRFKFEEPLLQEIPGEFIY

[32] = species: Homo sapiens; assay: Antiproliferative activity against human AHH1 cells after 48 hrs by CellTiter-Glo luminescence assay; type: functional, cell-based
[33] = biological target: Receptor-type tyrosine-protein kinase FLT3 (Homo sapiens) (UniProt P36888); assay: Inhibition of wild-type human partial length FLT3 (V592 to Y969 residues) expressed in bacterial expression system by Kinomescan method
[34] = Clearance in CD-1 mouse at 1 mg/kg, iv administered as single dose by LC-MS/MS analysis; type: ADME, organism-based; details: in vivo
[35] = biological target: MAP kinase-interacting serine/threonine-protein kinase 1/2 (Homo sapiens, UniProt Q9HBH9+Q9BUB5); assay: Inhibition of MNK1/2 in human HeLa cells assessed as decrease in eIF4E phosphorylation at Ser209 after 2 hrs by AlphaScreen assay; type: cell-based
[36] = biological target: MAP kinase-interacting serine/threonine-protein kinase 1 (Homo sapiens, UniProt Q9BUB5)
Description: Inhibition of GST-tagged MNK1 (37 to 341 residues) (unknown origin) expressed in Escherichia coli BL21(DE3) using JH3 peptide as substrate preincubated for 10 mins followed by substrate and ATP addition measured after 60 mins

[37] = biological target: Platelet-derived growth factor receptor beta (Homo sapiens) (UniProt P09619); assay: Inhibition of wild-type human partial length PDGFRB (V582 to Y1009 residues) expressed in bacterial expression system at 1 uM by Kinomescan method relative to control
Chain of Platelet-derived growth factor receptor beta (Homo sapiens) (P09619 whole entry, the tested form may be a part): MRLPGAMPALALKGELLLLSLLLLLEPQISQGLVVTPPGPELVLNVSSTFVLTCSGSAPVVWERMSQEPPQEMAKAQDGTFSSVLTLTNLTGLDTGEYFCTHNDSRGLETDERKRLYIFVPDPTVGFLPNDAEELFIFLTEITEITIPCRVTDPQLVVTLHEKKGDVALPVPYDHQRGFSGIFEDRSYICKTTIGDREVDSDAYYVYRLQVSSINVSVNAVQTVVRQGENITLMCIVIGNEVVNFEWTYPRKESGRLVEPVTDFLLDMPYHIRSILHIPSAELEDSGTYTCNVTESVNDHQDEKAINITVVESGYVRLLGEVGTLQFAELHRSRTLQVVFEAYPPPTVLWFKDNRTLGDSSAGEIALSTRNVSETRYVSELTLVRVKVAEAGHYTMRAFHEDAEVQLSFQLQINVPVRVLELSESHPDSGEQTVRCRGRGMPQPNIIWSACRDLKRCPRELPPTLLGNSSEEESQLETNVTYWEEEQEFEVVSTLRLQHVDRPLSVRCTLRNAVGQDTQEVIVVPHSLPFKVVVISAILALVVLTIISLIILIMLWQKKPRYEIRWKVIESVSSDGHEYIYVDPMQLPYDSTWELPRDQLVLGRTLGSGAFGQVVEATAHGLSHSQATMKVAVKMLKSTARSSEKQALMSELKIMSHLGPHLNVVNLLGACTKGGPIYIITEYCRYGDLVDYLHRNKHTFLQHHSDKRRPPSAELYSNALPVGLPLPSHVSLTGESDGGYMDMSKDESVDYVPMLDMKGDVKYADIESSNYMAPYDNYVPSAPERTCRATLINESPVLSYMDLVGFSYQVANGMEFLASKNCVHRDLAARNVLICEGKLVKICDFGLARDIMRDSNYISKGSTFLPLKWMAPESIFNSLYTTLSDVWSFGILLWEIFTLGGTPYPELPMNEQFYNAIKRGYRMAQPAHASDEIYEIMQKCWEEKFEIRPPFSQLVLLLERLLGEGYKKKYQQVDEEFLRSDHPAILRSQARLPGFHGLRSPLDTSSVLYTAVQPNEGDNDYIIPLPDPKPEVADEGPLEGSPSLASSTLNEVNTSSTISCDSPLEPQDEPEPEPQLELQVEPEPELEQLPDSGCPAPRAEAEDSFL

[38] = system: P3HR-1; assay: Antiproliferative activity against human P3HR1 cells after 48 hrs by CellTiter-Glo luminescence assay; type: functional, cell-based

Cc1nc(Nc2ncc(C(=O)Nc3c(C)cccc3Cl)s2)cc(N2CCN(CCO)CC2)n1 [DASATINIB]
inhibition in vivo at 2.5 mg/kg [1]: 88%

CN1CCN(C(=O)c2ccc(-c3cn4c(-c5ccc(C#N)cc5)cnc4cn3)cc2)CC1
Papp [2]: 102 ×10⁻⁶ cm/s | half-life at 1 µM [3]: 0.683 h | Papp A→B [4]: 6.87 ×10⁻⁶ cm/s | logD [5]: 1.67 | bioavailability [6]: 48% | fraction unbound at 5 h [7]: 0.016 | fraction unbound at 5 h [8]: 0.129 | IC50 [9]: > 20000 nM | solubility thermodynamic at 18 h [10]: > 125 µg/mL | half-life at 1 µM [11]: 0.617 h | IC50 [12]: > 20000 nM

N#Cc1ccc(-c2cnc3ccc(-c4ccc(C(=O)N5CCOCC5)cc4)nn23)cc1
inhibition [13]: > 65% | Papp [2]: 30 ×10⁻⁶ cm/s | half-life at 1 µM [3]: 0.883 h | inhibition [14]: > 65% | IC50 [15]: 41 nM | half-life at 1 µM [16]: > 1 h | half-life [17]: 2.32 h | Papp A→B [4]: 38.5 ×10⁻⁶ cm/s | half-life [18]: 2.14 h | inhibition [19]: > 65% | AUC(0-t) [20]: 24100 ng·h/mL | inhibition [21]: > 65% | AUC(0-t) [22]: 6120 ng·h/mL | bioavailability [23]: 79% | logD [5]: 2.1 | C0 [24]: 2940 ng/mL | Cmax [25]: 4400 ng/mL | Activity [26]: Active | inhibition [27]: > 65% | Activity [28]: Active | half-life at 1 µM [29]: > 1 h | fraction unbound at 5 h [7]: 0.001 | INH [30]: 0.25 µM | fraction unbound at 5 h [8]: 0.055 | inhibition [31]: > 65% | Activity [32]: Active | INH [33]: 0.88 µM | clearance [34]: 2.67 mL/min/kg | IC50 [35]: 421 nM | IC50 [36]: 23 nM | IC50 [9]: > 20000 nM | solubility thermodynamic at 18 h [10]: 1.8 µg/mL (≈ 4.4 µM) | half-life at 1 µM [11]: > 1 h | inhibition [37]: > 65% | Activity [38]: Active | IC50 [12]: > 20000 nM
